# Laboratory results: patent publication US4689326A, “Process for controlling hyperlipidemia” (Research Corporation, priority 1985, dated 1987)
# Experiments:
# Format in all cases: in vivo, CF1 male mice
# [1] = system: serum cholesterol; assay: Testing of Normal Mice: serum cholesterol (modified Liebermann-Burchard), Example 7; settings: Mus musculus, 20 mg/kg/day ip
# Experimental: (§1) Suspensions of Compounds Nos. 1-9 were prepared wherein the compounds were suspended in an aqueous 1% carboxymethylcelluose solution, homogenized and administered to CF1 male mice, each weighing approximately 25 grams, intraperitoneally on a daily basis for 16 days. The dosage was, with the exception of one compound, 20 milligrams of the active compound per kilogram of mouse weight per day. On days 9 and 16 blood was obtained by tail vein bleeding. The blood serum was separated by centrifugation for three minutes. Serum cholesterol levels were determined by a modification of the Liebermann-Burchard reaction. Serum was also collected on day 16 and the triglycerides content was determined by a commercial kit, BioDynamics/bnc Single Vile Colorimetric Method 348201. Each compound was tested on a group of six mice.
# (§2) In addition to the above-described treated mice, untreated control groups of six mice were similarly tested on days 9 and 14 or 16 to determine their serum cholesterol and triglycerides blood levels. Table 5 reports the percent control, based on the serum cholesterol and serum triglyceride levels of the treated mice compared to the untreated controls. Table 5 also includes the standard deviation indicating the level of confidence of these numbers.
# (§3) Example 7 was repeated substituting clofibrate, a compound used in the prior art to lower serum cholesterol and serum triglyceride levels. The clofibrate was administered as a suspension in an aqueous 1% solution of carboxymethylcellulose. However, unlike the compounds of the present invention which were administered at a dosage of 20 mg/kg day, ip, this compound was administered at the elevated concentration of 150 mg/kg day, ip.
# [2] = system: serum triglycerides; assay: Testing of Normal Mice: serum triglycerides (BioDynamics kit), Example 7; settings: Mus musculus, 384 h; 20 mg/kg/day ip, day 16, ± SD
# Experimental: as §1, §2, §3
# [3] = system: serum cholesterol; assay: Hypolipidemic Activity of Compounds 1 and 10-33, Example 13: serum cholesterol; settings: Mus musculus, 20 mg/kg/day ip
# Experimental: (§4) Compounds 1 and 10-33, identified below in Table 11, were suspended by homogenation in a 1% aqueous solution of carboxymethylcellulose (CMC) such that a 0.2 ml dosage supplied a concentration of 20 mg/kg of the active compounds. The suspending agent, the 1% aqueous solution of CMC, was utilized as a control, applied in the same quantity, 0.2 ml. CF1 male mice, maintained in groups of six, were fed Wayne Blox [trademark] laboratory animal show ad libitum with water. The mice, which each weighed approximately 25 g, were administered the drugs interperitoneally at approximately the same time. On days 9 and 16 approximately […] of blood was taken from each of the animals by tail bleeding. After centrifugation to obtain serum, 25 microliter samples were assayed for total cholesterol utilizing the method of Ness et al. Serum triglyicerides were assayed, using a commercially available BioDynamics/bmc triglyiceride kit, on blood collected on the 16th day. By comparison to standards the milligram percent of cholesterol and milligram per deciliter concentration of triglicerides were calculated. Treated values were expressed as a percent of the level of the control animals plus or minus the standard deviation. The "T" values were obtained using the Student's "t" test.
# [4] = system: serum triglycerides; assay: Hypolipidemic Activity of Compounds 1 and 10-33, Example 13: serum triglycerides; settings: Mus musculus, 384 h; 20 mg/kg/day ip, day 16, ± SD; read-out: Serum Triglyceride as a function of control, 16 Day
# Experimental: as §4
compound,measurement,setting,value
"O=c1[nH]c(=O)c2ccccc2c2ccccc12 [Compound 1, Diphenimide]",response vs control in vivo at 20 mg/kg,"[1]; 216 h, day 9, ± SD, read-out: Serum Cholesterol Control, % Day 9",81 ± 7%
same,response vs control in vivo at 20 mg/kg,"[1]; 384 h, day 16, ± SD, read-out: Serum Cholesterol Control, % Day 16",82 ± 4%
same,response vs control in vivo at 20 mg/kg,[2],81 ± 7%
same,response vs control in vivo at 20 mg/kg,"[3]; 216 h, day 9, ± SD, read-out: Serum Cholesterol as a function of control, 9 Day",81 ± 7%
same,response vs control in vivo at 20 mg/kg,"[3]; 384 h, day 16, ± SD, read-out: Serum Cholesterol as a function of control, 16 Day",82 ± 4%
same,response vs control in vivo at 20 mg/kg,[4],81 ± 7%
